Consider five compounds from ChEMBL document CHEMBL1201862, “PubChem BioAssay data set” (2004).

Structures are written as SMILES.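 Five concentrations, 48 hours, 96-well plates. GI50 = concentration required for 50% inhibition of growth.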 Calls of active or inactive are those of the source. Rule as the data show it: active = GI50 up to about 1.1 µM and inactive = higher.

Common to all, as to assay: growth of human tumour cells (NCI), 48 h
Assay [1] has as its system SNB-75.
For assay [2], the system named is NCI/ADR-RES.
The test system of assay [3] is NCI-H23.
Assay [4] concerns U-251.
In assay [5] the test system is NCI-H522.
For assay [6], the system named is SK-MEL-5.
The test system of assay [7] is OVCAR-3.
The subject of assay [8] is SK-MEL-2.
Assay [9] deals with HOP-92.
In assay [10] the test system is OVCAR-4.
In assay [11] the test system is HCT-15.
Assay [12] relates to TK-10.
In assay [13] the test system is HOP-62.
Assay [14] concerns HCT-116.
The subject of assay [15] is Malme-3M.
Assay [16] has as its system SW-620.
The test system of assay [17] is RXF 393.
Assay [18] concerns CCRF-CEM.

On to `CCCCN(CCCC)C(=C(C(Cl)=C(Cl)Cl)[N+](=O)[O-])N(CCCC)CCCC`, for which the GI50 is > 100 µM (inactive) in assay [1]; > 100 µM (inactive) in assay [2]; 82.2 µM (inactive) in assay [3]; 45.9 µM (inactive) in [4]; 48.3 µM (inactive) in assay [5]; > 100 µM (inactive) in assay [6]. The GI50 was 37.2 µM (inactive) in assay [7]; 80.2 µM (inactive) in [8]; 90.8 µM (inactive) in assay [9]; > 100 µM (inactive) in assay [10]; 98.6 µM in assay [11]; > 100 µM (inactive) in [12]. The values for the GI50 in [13], in assay [14] and in [15] were > 100 µM (inactive), 67.9 µM (inactive) and > 100 µM (inactive), respectively.
As for `CC(C)C1=CC(=O)C(C)(C2C(O)CC3(C)C4CC=C5C(CCC(OC6OC(CO)C(O)C(O)C6OC6OC(C)C(O)C(O)C6O)C5(C)C)C4(C)C(=O)CC23C)O1` (configuration not stated), the GI50 in assay [1], in assay [2], in assay [3], in assay [16], in assay [4] and in [5] was > 100 µM (inactive) in each case. In addition, the GI50 in assay [6], in assay [7], in [9], in assay [17], in [10] and in [18] was > 100 µM (inactive) each time. Also, the GI50 in assay [11] was over 100 µM; in assay [13], > 100 µM (inactive); in assay [14], > 100 µM (inactive); in assay [15], > 100 µM (inactive).
Turning to `COc1cc2c(cc1OC)-c1cc3cc(OC)c(OC)cc3c(C)[n+]1CC2.O=C([O-])CS(=O)(=O)O`, the GI50 in assay [2] is > 100 µM (inactive); in [3] it was 35.4 µM (inactive); in assay [16], > 100 µM (inactive); in [4], 15 µM (inactive); in [5], 6.78 µM (inactive); in assay [6], 37.8 µM (inactive). For the same compound, the GI50 in [7] was 29.1 µM (inactive); in assay [8], > 100 µM (inactive); in [9], 95.9 µM (inactive); in assay [17], > 100 µM (inactive); in [10], > 100 µM (inactive); in [18], 6.49 µM (inactive). For the same compound, the GI50 in [11] was over 100 µM; in [12], > 100 µM (inactive); in [13], > 100 µM (inactive); in [14], 73.5 µM (inactive); in assay [15] it was 29.3 µM (inactive).
Turning to `CC(=O)C1C(=O)C(=O)N(c2ccc([N+](=O)[O-])cc2Cl)C1=O` (configuration not stated), the GI50 in assay [1], in assay [2], in assay [3], in [16], in assay [4] and in assay [5] was > 100 µM (inactive) each time. Moreover, the GI50 is > 100 µM (inactive) in assay [6]; 94.2 µM (inactive) in assay [7]; > 100 µM (inactive) in assay [8]; 56.6 µM (inactive) in assay [9]; 97.9 µM (inactive) in assay [17]; > 100 µM (inactive) in assay [10]. Besides, the GI50 was > 100 µM (inactive) in assay [18]; over 100 µM in assay [11]; > 100 µM (inactive) in [12]; > 100 µM (inactive) in assay [13]; > 100 µM (inactive) in assay [14].
Regarding `Oc1cc(Cc2ccccc2)c(Cc2ccccc2)cc1O`, the GI50 is 4.62 µM (inactive) in [1]; > 10 µM (inactive) in assay [2]; > 10 µM (inactive) in [3]; > 10 µM (inactive) in [16]; > 10 µM (inactive) in assay [4]; > 10 µM (inactive) in assay [5]. For the same compound, the GI50 in assay [6], in [7], in [8], in assay [9], in assay [17] and in assay [10] was > 10 µM (inactive) each time. Moreover, the GI50 is > 10 µM (inactive) in [18]; over 10 µM in [11]; > 10 µM (inactive) in assay [13]; > 10 µM (inactive) in [14]; > 10 µM (inactive) in [15].
